Test results taken from the supplement of paper PMC10307832.

Legend:
Assay in all cases: relative viability (nuclei count vs DMSO), 5 days (fraction); higher = more cells survive
[1] = system: LCLC-97TM1
How it was run: (§1)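 Lung cancer cell lines in 1536-well plates got either a single drug or a fixed anchor-drug dose together with five library-drug doses (not always all listed) in √10 steps, by pin tool, on the day after seeding. Nuclei were counted after 5 days, and relative viability is the treated-to-vehicle ratio of nuclei counts. Values are medians of duplicate plates.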

[2] = system: NCI-H661
How it was run: as §1

[3] = system: NCI-H1651
How it was run: as §1

[4] = system: NCI-H1650
How it was run: as §1

[5] = system: NCI-H650
How it was run: as §1

[6] = system: ABC-1
How it was run: as §1

[7] = system: NCI-H727
How it was run: as §1

[8] = system: NCI-H2087
How it was run: as §1

[9] = system: PC-3 [JPC-3]
How it was run: as §1

[10] = system: NCI-H596
How it was run: as §1

[11] = system: NCI-H1792
How it was run: as §1

[12] = system: LC-2-ad
How it was run: as §1

[13] = system: NCI-H441
How it was run: as §1

[14] = system: CAL-12T
How it was run: as §1

[15] = system: NCI-H1944
How it was run: as §1

[16] = system: NCI-H520
How it was run: as §1

[17] = system: A-427
How it was run: as §1

[18] = system: NCI-H1915
How it was run: as §1

[19] = system: H3255
How it was run: as §1

[20] = system: BEN
How it was run: as §1

[21] = system: NCI-H460
How it was run: as §1

[22] = system: NCI-H2023
How it was run: as §1

[23] = system: 201T
How it was run: as §1

Structure (SMILES): NC(=O)Nc1cc(-c2cccc(F)c2)sc1C(=O)N[C@H]1CCCNC1 [AZD7762] + COc1cccc2cc(-c3nc([C@H]4CC[C@H](C(=O)O)CC4)n4ncnc(N)c34)[nH]c12 [OSI-027] (partner 0.5 µM)
- relative viability ([1]; first compound 0.01 µM): 0.582
- relative viability ([1]; first compound 0.03162 µM): 0.577
- relative viability ([1]; first compound 0.1 µM): 0.511
- relative viability ([1]; first compound 0.3162 µM): 0.617
- relative viability ([1]; first compound 1 µM): 0.44
- relative viability ([2]; first compound 0.01 µM): 0.731
- relative viability ([2]; first compound 0.03162 µM): 0.717
- relative viability ([2]; first compound 0.1 µM): 0.616
- relative viability ([2]; first compound 0.3162 µM): 0.559
- relative viability ([2]; first compound 1 µM): 0.319
- relative viability ([3]; first compound 0.01 µM): 0.76
- relative viability ([3]; first compound 0.03162 µM): 0.637
- relative viability ([3]; first compound 0.1 µM): 0.653
- relative viability ([3]; first compound 0.3162 µM): 0.637
- relative viability ([3]; first compound 1 µM): 0.193
- relative viability ([4]; first compound 0.01 µM): 0.688
- relative viability ([4]; first compound 0.03162 µM): 0.638
- relative viability ([4]; first compound 0.1 µM): 0.708
- relative viability ([4]; first compound 0.3162 µM): 0.425
- relative viability ([4]; first compound 1 µM): 0.206
- relative viability ([5]; first compound 0.01 µM): 0.549
- relative viability ([5]; first compound 0.03162 µM): 0.542
- relative viability ([5]; first compound 0.1 µM): 0.537
- relative viability ([5]; first compound 0.3162 µM): 0.509
- relative viability ([5]; first compound 1 µM): 0.614
- relative viability ([6]; first compound 0.01 µM): 0.469
- relative viability ([6]; first compound 0.03162 µM): 0.517
- relative viability ([6]; first compound 0.1 µM): 0.414
- relative viability ([6]; first compound 0.3162 µM): 0.349
- relative viability ([6]; first compound 1 µM): 0.161
- relative viability ([7]; first compound 0.01 µM): 0.649
- relative viability ([7]; first compound 0.03162 µM): 0.791
- relative viability ([7]; first compound 0.1 µM): 0.425
- relative viability ([7]; first compound 0.3162 µM): 0.52
- relative viability ([7]; first compound 1 µM): 0.358
- relative viability ([8]; first compound 0.01 µM): 0.474
- relative viability ([8]; first compound 0.03162 µM): 0.653
- relative viability ([8]; first compound 0.1 µM): 0.681
- relative viability ([8]; first compound 0.3162 µM): 0.883
- relative viability ([8]; first compound 1 µM): 0.779
- relative viability ([9]; first compound 0.01 µM): 0.714
- relative viability ([9]; first compound 0.03162 µM): 0.832
- relative viability ([9]; first compound 0.1 µM): 0.858
- relative viability ([9]; first compound 0.3162 µM): 0.751
- relative viability ([9]; first compound 1 µM): 0.684
- relative viability ([10]; first compound 0.01 µM): 0.702
- relative viability ([10]; first compound 0.03162 µM): 0.711
- relative viability ([10]; first compound 0.1 µM): 0.849
- relative viability ([10]; first compound 0.3162 µM): 0.673
- relative viability ([10]; first compound 1 µM): 0.686
- relative viability ([11]; first compound 0.01 µM): 0.832
- relative viability ([11]; first compound 0.03162 µM): 0.848
- relative viability ([11]; first compound 0.1 µM): 0.811
- relative viability ([11]; first compound 0.3162 µM): 0.867
- relative viability ([11]; first compound 1 µM): 0.965
- relative viability ([12]; first compound 0.01 µM): 0.911
- relative viability ([12]; first compound 0.03162 µM): 1
- relative viability ([12]; first compound 0.1 µM): 0.816
- relative viability ([12]; first compound 0.3162 µM): 0.8
- relative viability ([12]; first compound 1 µM): 0.543
- relative viability ([13]; first compound 0.01 µM): 0.765
- relative viability ([13]; first compound 0.03162 µM): 0.819
- relative viability ([13]; first compound 0.1 µM): 0.944
- relative viability ([13]; first compound 0.3162 µM): 0.799
- relative viability ([13]; first compound 1 µM): 0.59
- relative viability ([14]; first compound 0.01 µM): 0.676
- relative viability ([14]; first compound 0.03162 µM): 0.73
- relative viability ([14]; first compound 0.1 µM): 0.768
- relative viability ([14]; first compound 0.3162 µM): 0.487
- relative viability ([14]; first compound 1 µM): 0.124
- relative viability ([15]; first compound 0.01 µM): 0.396
- relative viability ([15]; first compound 0.03162 µM): 0.467
- relative viability ([15]; first compound 0.1 µM): 0.53
- relative viability ([15]; first compound 0.3162 µM): 0.525
- relative viability ([15]; first compound 1 µM): 0.299
- relative viability ([16]; first compound 0.01 µM): 0.294
- relative viability ([16]; first compound 0.03162 µM): 0.246
- relative viability ([16]; first compound 0.1 µM): 0.246
- relative viability ([16]; first compound 0.3162 µM): 0.243
- relative viability ([16]; first compound 1 µM): 0.16
- relative viability ([17]; first compound 0.01 µM): 0.484
- relative viability ([17]; first compound 0.03162 µM): 0.498
- relative viability ([17]; first compound 0.1 µM): 0.343
- relative viability ([17]; first compound 0.3162 µM): 0.353
- relative viability ([17]; first compound 1 µM): 0.224
- relative viability ([18]; first compound 0.01 µM): 0.629
- relative viability ([18]; first compound 0.03162 µM): 0.635
- relative viability ([18]; first compound 0.1 µM): 0.64
- relative viability ([18]; first compound 0.3162 µM): 0.638
- relative viability ([18]; first compound 1 µM): 0.571
- relative viability ([19]; first compound 0.01 µM): 0.572
- relative viability ([19]; first compound 0.03162 µM): 0.506
- relative viability ([19]; first compound 0.1 µM): 0.534
- relative viability ([19]; first compound 0.3162 µM): 0.629
- relative viability ([19]; first compound 1 µM): 0.607
- relative viability ([20]; first compound 0.01 µM): 0.284
- relative viability ([20]; first compound 0.03162 µM): 0.297
- relative viability ([20]; first compound 0.1 µM): 0.305
- relative viability ([20]; first compound 0.3162 µM): 0.287
- relative viability ([20]; first compound 1 µM): 0.246
- relative viability ([21]; first compound 0.01 µM): 0.861
- relative viability ([21]; first compound 0.03162 µM): 0.751
- relative viability ([21]; first compound 0.1 µM): 0.649
- relative viability ([21]; first compound 0.3162 µM): 0.463
- relative viability ([21]; first compound 1 µM): 0.0347
- relative viability ([22]; first compound 0.01 µM): 0.405
- relative viability ([22]; first compound 0.03162 µM): 0.331
- relative viability ([22]; first compound 0.1 µM): 0.216
- relative viability ([22]; first compound 0.3162 µM): 0.116
- relative viability ([22]; first compound 1 µM): 0.105
- relative viability ([23]; first compound 0.01 µM): 0.795
- relative viability ([23]; first compound 0.03162 µM): 0.779
- relative viability ([23]; first compound 0.1 µM): 0.703
- relative viability ([23]; first compound 0.3162 µM): 0.423
- relative viability ([23]; first compound 1 µM): 0.254
